# Source: patent US20150336889A1, “INDOLE DERIVATIVES, PHARMACEUTICAL COMPOSITIONS CONTAINING SUCH INDOLES AND THEIR USE AS DNA METHYLATION MODULATORS” (IKERCHEM, S.L., priority 2012, published 2015)
# Counter-ions that a name gives are not always drawn.
# Columns and labels:
# [1] = target: T1, Human DNMT1 (Homo sapiens, UniProt P26358); assay: DNMT1 enzymatic activity inhibition, radioisotope-based 3H-SAM filter binding assay; assay type: biochemical; conditions: 1 μM SAM, 25 nM DNMT1, 0.005 mg/ml Poly(dI-dC), 30° C. 1 hour, 10-dose
# T1 construct: a-a 2-1632, with N-terminal GST tag; GST (N)
# T1 sequence (P26358 2-1632 isoform P26358-2): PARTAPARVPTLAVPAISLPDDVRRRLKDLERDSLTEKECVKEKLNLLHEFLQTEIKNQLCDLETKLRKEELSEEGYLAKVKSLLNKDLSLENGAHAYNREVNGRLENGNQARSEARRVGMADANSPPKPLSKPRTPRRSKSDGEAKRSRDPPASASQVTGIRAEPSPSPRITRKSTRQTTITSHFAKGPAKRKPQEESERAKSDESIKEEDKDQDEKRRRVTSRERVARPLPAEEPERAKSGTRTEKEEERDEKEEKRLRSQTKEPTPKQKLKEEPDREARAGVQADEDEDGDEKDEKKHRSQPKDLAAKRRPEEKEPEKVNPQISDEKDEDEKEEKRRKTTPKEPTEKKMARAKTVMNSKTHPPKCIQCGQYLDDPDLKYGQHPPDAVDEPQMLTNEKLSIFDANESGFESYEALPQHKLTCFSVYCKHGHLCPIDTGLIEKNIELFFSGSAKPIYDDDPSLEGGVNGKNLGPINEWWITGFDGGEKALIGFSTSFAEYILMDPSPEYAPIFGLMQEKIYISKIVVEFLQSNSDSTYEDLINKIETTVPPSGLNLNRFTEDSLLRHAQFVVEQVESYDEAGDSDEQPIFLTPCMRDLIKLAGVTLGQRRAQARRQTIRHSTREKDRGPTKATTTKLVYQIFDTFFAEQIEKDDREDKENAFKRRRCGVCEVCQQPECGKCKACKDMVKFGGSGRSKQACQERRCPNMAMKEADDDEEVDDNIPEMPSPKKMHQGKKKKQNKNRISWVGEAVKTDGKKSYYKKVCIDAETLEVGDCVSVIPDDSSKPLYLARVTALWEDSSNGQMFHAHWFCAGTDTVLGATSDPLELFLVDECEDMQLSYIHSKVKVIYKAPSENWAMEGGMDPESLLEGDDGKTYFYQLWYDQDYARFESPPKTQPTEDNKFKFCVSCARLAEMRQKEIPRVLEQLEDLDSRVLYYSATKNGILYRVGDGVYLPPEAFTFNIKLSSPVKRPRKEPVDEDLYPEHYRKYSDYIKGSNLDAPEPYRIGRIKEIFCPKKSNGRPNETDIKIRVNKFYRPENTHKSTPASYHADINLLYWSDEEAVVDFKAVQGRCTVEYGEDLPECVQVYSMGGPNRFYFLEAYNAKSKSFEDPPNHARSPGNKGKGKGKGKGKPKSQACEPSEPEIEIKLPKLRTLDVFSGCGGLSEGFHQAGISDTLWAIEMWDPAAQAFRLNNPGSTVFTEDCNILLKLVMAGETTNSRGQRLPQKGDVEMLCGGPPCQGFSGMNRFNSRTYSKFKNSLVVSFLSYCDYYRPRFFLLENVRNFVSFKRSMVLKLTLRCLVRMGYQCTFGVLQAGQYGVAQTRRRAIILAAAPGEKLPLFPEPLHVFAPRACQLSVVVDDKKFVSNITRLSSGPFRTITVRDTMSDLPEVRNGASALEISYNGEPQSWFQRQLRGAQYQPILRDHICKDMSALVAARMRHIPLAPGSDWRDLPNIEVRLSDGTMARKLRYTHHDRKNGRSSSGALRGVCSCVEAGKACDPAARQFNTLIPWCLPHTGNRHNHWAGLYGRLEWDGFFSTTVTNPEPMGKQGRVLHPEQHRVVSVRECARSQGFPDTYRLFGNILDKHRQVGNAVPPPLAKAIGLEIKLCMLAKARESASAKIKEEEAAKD
# Procedure: The inhibition of the enzymatic activity of DNMT1 was tested using low volume radioisotope-based assay which uses tritium-labeled AdoMet (^3H-SAM) as a methyl donor. Inhibitors diluted in DMSO were added by using acoustic technology (Echo550, Labcyte Inc. Sunnyvale, Calif.) into enzyme/substrate mixture in nano-liter range. The reaction was initiated by the addition of ^3H-SAM, and incubated at 30° C. for 1 hour. Total final methylations on the substrate poly(dI-dC) were detected by a filter binding approach. Data analysis was performed using GraphPad Prism software (La Jolla, Calif.) for IC50 curve fits.
# [2] = test system: A-431; assay: Cancer cell growth inhibition, A-431; assay type: cell-based; conditions: Homo sapiens; Epidermoid, A-431, cell viability, 72 h
# Procedure: (§1) Cell culture-based assays were used to evaluate the ability of compounds of the invention to inhibit cancer cell growth inhibition.
# (§2) Cells were obtained from the American Type Culture Collection (ATCC) and European Collection of Cell Cultures (ECACC).
# (§3) Cells were thawed in their appropriate media plus supplements (see table below). Cells were passaged at confluence by washing once in HBSS cation-free followed by a 3 minutes incubation with trypsin ([0.5 μg/ml]/EDTA [0.2 μg/ml]) (Gibco-BRL, 15400054) solution in HBSS at 37° C. (except non-adherent cell lines), and transferred to their appropriate media plus supplements. Prior to seeding at defined cell concentration, cells were recovered in medium, centrifuged and taken up in medium, and counted.
# (§4) Cells were plated at 3000/5000/10000 cells/well in 100 μl media in tissue culture 96 well plates (Cultek). After 24 h, media was supplemented by 100 μl/well of diluted IPDNs at 100 μM.
# (§5) The Hexosaminidase assay was used for the adherent cell lines, whereas the AlamarBlue® assay was used for the non-adherent cell lines.
# (§6) Dose-response curves were generated by serial dilutions (1:1) of the compounds. […] Reagent blanks, containing media plus colorimetric reagent without cells were run on each plate. Blank values were subtracted from test values and were routinely 5-10% of uninhibited control values. Plates were incubated 72 h, and living cell number was determined by AlamarBlue® and Hexosaminidase test. The advantages of using those assays are that both can be done in the same microwell plate. AlamarBlue® assay: plates were incubated 72 h and living cell number was determined by AlamarBlue (Biosource DAL1100). After 4 h incubation at 37° C., relative fluorescent intensity, which correlates with the number of living cells, was read in a Cytofluor plate reader (Millipore) at 535/590 nm (Excitation/emission). The hexosaminidase activity was measured according to the following protocol: the media was removed and cells were washed once with PBS.
# (§7) Data analysis was done by calculating the percentage of cell viability normalized in front of negative control values, which were considered as a 100%. The curve was adjusted using a sigmoidal dose-response (variable slope) equation and EC50 values were obtained from the equation
# (§8) where, X is the logarithm of concentration. Y is the response. Bottom is the Y value at the bottom plateau Top is the Y value at the top plateau LogEC50 is the X value when the response is halfway between Bottom and Top. With different kinds of variables, this variable is sometimes called ED50 (effective dose, 50%), or IC50 (inhibitory concentration, 50%, used when the curve goes downhill).
# [3] = test system: Daoy; assay: Cancer cell growth inhibition, Daoy; assay type: cell-based; conditions: Homo sapiens, Brain, cell viability, 72 h
# Procedure: as §1, §2, §3, §4, §5, §6, §7, §8
# [4] = test system: SK-HEP-1; assay: Cancer cell growth inhibition, SK-HEP-1; assay type: cell-based; conditions: Homo sapiens, SK-HEP1; Liver, SK-HEP-1, cell viability, 72 h
# Procedure: as §1, §2, §3, §4, §5
# as §6, with “PBS. […]” for “PBS.”
# [5] = test system: MiaPaCa-2; assay: Cancer cell growth inhibition, MiaPaCa-2; assay type: cell-based; conditions: Homo sapiens, MIA PaCa-2; Pancreatic, MiaPaCa-2, cell viability, 72 h
# Procedure: as §1, §2, §3, §4, §5, §6, §7, §8
# [6] = test system: U-87MG; assay: Cancer cell growth inhibition, U-87MG; assay type: cell-based; conditions: Homo sapiens, Brain, cell viability, 72 h
# Procedure: as §1, §2, §3, §4, §5, §6, §7, §8
# [7] = test system: NCI-H1975; assay: Cancer cell growth inhibition, NCI-H1975; assay type: cell-based; conditions: Homo sapiens; Lung, NCI-H1975, cell viability, 72 h
# Procedure: as §1, §2, §3, §4, §5, §6, §7, §8
# [8] = test system: RPMI-8226; assay: Cancer cell growth inhibition, RPMI-8226; assay type: cell-based; conditions: Homo sapiens; Multiple Myelome, RPMI-8226, cell viability, 72 h
# Procedure: as §1, §2, §3, §4, §5, §6, §7, §8
# [9] = test system: HCT-116; assay: Cancer cell growth inhibition, HCT-116; assay type: cell-based; conditions: Homo sapiens; Colorectal, HCT-116, cell viability, 72 h
# Procedure: as §1, §2, §3, §4, §5, §6, §7, §8
# [10] = test system: CCFR-CEM; assay: Cancer cell growth inhibition, CCFR-CEM; assay type: cell-based; conditions: Hematologic, cell viability, 72 h
# Procedure: as §1, §2, §3, §4, §5, §6, §7, §8
# [11] = test system: MDA-MB-435; assay: Cancer cell growth inhibition, MDA-MB-435; assay type: cell-based; conditions: Homo sapiens; Melanoma, MDA-MB-435, cell viability, 72 h
# Procedure: as §1, §2, §3, §4, §5, §6, §7, §8
# [12] = test system: MCF-7; assay: Cancer cell growth inhibition, MCF-7; assay type: cell-based; conditions: Homo sapiens, MCF7; Breast, MCF-7, cell viability, 72 h
# Procedure: as §1, §2, §3, §4, §5, §6, §7, §8
# [13] = test system: T47D; assay: Cancer cell growth inhibition, T47D; assay type: cell-based; conditions: Homo sapiens, Breast, cell viability, 72 h
# Procedure: as §1, §2, §3, §4, §5, §6, §7, §8
# [14] = test system: Jurkat; assay: Cancer cell growth inhibition, Jurkat; assay type: cell-based; conditions: Homo sapiens, Hematologic, cell viability, 72 h
# Procedure: as §1, §2, §3, §4, §5, §6, §7, §8
# [15] = test system: NCI-H358; assay: Cancer cell growth inhibition, NCI-H358; assay type: cell-based; conditions: Homo sapiens; Lung, NCI-H358, cell viability, 72 h
# Procedure: as §1, §2, §3, §4, §5, §6, §7, §8
Structure (SMILES),IC50 [1],further results
"O=C(Cn1cc(-c2ccc(O)cc2)c2ccc(O)cc21)c1ccc(O)cc1 [Example 17, 2-[6-hydroxy-3-(4-hydroxyphenyl)-1H-indol-1-yl]-1-(4-hydroxyphenyl) ethanone]",50.9 µM,–
"O=C(Cn1cc(-c2ccc(O)cc2)c2cc(F)ccc21)c1ccc(O)cc1 [Example 19, 2-[5-fluoro-3-(4-hydroxyphenyl)-1H-indol-1-yl]-1-(4-hydroxyphenyl) ethanone]",59.1 µM,–
"COc1cc(OC)c2c(-c3ccc(O)cc3)cn(C/C(=N\O)c3ccc(O)cc3)c2c1 [Example 22, (Z)-1-(4-hydroxyphenyl)-2-[3-(4-hydroxyphenyl)-4,6-dimethoxy-1H-indol-1-yl]ethanone oxime]",22.5 µM,–
"COc1cc(OC)c2c(-c3ccc(O)cc3)cn(CC(=O)c3ccc(O)cc3)c2c1 [Example 27, calcium phenoxide salt of 1-(4-hydroxyphenyl)-2-[3-(4-hydroxyphenyl)-4,6-dimethoxy-1H-indol-1-yl]ethanone]",46.8 µM,–
"COc1cc(OC)cc(N(CC(=O)c2ccc(O)c(O)c2O)CC(=O)c2ccc(O)c(O)c2O)c1 [Example 24, 2,2′-[(3,5-dimethoxyphenyl)azanediyl]-bis[1-(2,3,4-trihydroxyphenyl)ethanone]]",15.6 µM,–
"COc1cc(OC)c2c(-c3ccc(O)cc3)cn(C/C(=N/O)c3ccc(O)cc3)c2c1 [Example 21, (E)-1-(4-Hydroxyphenyl)-2-[3-(4-hydroxyphenyl)-4,6-dimethoxy-1H-indol-1-yl]ethanone oxime]",104 µM,–
"COc1cc(OC)c2c(-c3ccc(OC(C)=O)c(OC(C)=O)c3)cn(CC(=O)c3ccc(OC(C)=O)c(OC(C)=O)c3)c2c1 [Example 30, 4-{1-[2-(3,4-diacetoxyphenyl)-2-oxoethyl]-4,6-dimethoxy-1H-indol-3-yl}-1,2-phenylene diacetate]",–,EC50 [2]: 88 µM; EC50 [3]: 50 µM; EC50 [4]: 39 µM; EC50 [5]: 55 µM; EC50 [6]: 75 µM; EC50 [7]: 47 µM; EC50 [8]: 36 µM; EC50 [9]: 64 µM; EC50 [10]: 40 µM; EC50 [11]: 23 µM; EC50 [12]: 88 µM; EC50 [13]: 47 µM; EC50 [14]: 49 µM; EC50 [15]: 53 µM
"O=C(Cn1cc(-c2ccc(O)cc2)c2cc(O)ccc21)c1ccc(O)cc1 [Example 18, 2-[5-hydroxy-3-(4-hydroxyphenyl)-1H-indol-1-yl]-1-(4-hydroxyphenyl) ethanone]",32.9 µM,–
"COc1ccc2c(-c3ccc(O)c(O)c3O)cn(CC(=O)c3ccc(O)c(O)c3O)c2c1 [Example 5, 2-[6-methoxy-3-(2,3,4-trihydroxyphenyl)-1H-indol-1-yl]-1-(2,3,4-trihydroxyphenyl) ethanone]",3.53 µM,–
"COc1ccc2c(-c3ccc(O)cc3)cn(CC(=O)c3ccc(O)cc3)c2c1 [Example 1, 1-(4-hydroxyphenyl)-2-[3-(4-hydroxyphenyl)-6-methoxy-1H-indol-1-yl]ethanone]",73.1 µM,–
"O=C(Cn1cc(-c2ccc(O)cc2)c2ccccc21)c1ccc(O)cc1 [Example 20, 1-(4-hydroxyphenyl)-2-[3-(4-hydroxyphenyl)-1H-indol-1-yl]ethanone]",241 µM,–
"COc1ccc2c(-c3ccc(O)cc3)cn(CC(=O)c3ccc(O)cc3)c2c1 [Example 25, potassium phenoxide salt of 1-(4-hydroxyphenyl)-2-[3-(4-hydroxyphenyl)-6-methoxy-1H-indol-1-yl]ethanone]",19.5 µM,–
"COc1cc(OC)c2c(-c3ccc(O)cc3)cn(CC(=O)c3ccc(O)cc3)c2c1 [Example 26, potassium phenoxide salt of 1-(4-hydroxyphenyl)-2-[3-(4-hydroxyphenyl)-4,6-dimethoxy-1H-indol-1-yl]ethanone]",40.4 µM,–
"COc1ccc2c(-c3ccccc3O)cn(CC(=O)c3ccccc3O)c2c1 [Example 3, 1-(2-hydroxyphenyl)-2-[3-(2-hydroxyphenyl)-6-methoxy-1H-indol-1-yl]ethanone]",56.7 µM,–
"COc1cc(OC)c2c(-c3ccc(F)cc3)cn(CC(=O)c3ccc(F)cc3)c2c1 [Example 12, 1-(4-fluorophenyl)-2-[3-(4-fluorophenyl)-4,6-dimethoxy-1H-indol-1-yl]ethanone]",104 µM,–
"COc1cccc(N(CC(=O)c2ccc(O)c(O)c2O)CC(=O)c2ccc(O)c(O)c2O)c1 [Example 23, 2,2′-[(3-methoxyphenyl)azanediyl]-bis[1-(2,3,4-trihydroxyphenyl)ethanone]]",27.4 µM,–
"COc1cc(OC)c2c(-c3ccc(O)cc3O)cn(CC(=O)c3ccc(O)cc3O)c2c1 [Example 9, 1-(2,4-dihydroxyphenyl)-2-[3-(2,4-dihydroxyphenyl)-4,6-dimethoxy-1H-indol-1-yl]ethanone]",181 µM,–
"COc1cc2c(cc1O)c(-c1ccc(O)cc1)cn2CC(=O)c1ccc(O)cc1 [Example 15, 2-[5-hydroxy-3-(4-hydroxyphenyl)-6-methoxy-1H-indol-1-yl]-1-(4-hydroxyphenyl)ethanone]",576 µM,–
"COc1cc(OC)c2c(-c3cc(O)cc(O)c3)cn(CC(=O)c3cc(O)cc(O)c3)c2c1 [Example 10, 1-(3,5-dihydroxyphenyl)-2-[3-(3,5-dihydroxyphenyl)-4,6-dimethoxy-1H-indol-1-yl]ethanone]",44.6 µM,–
"COc1cc2c(-c3ccc(O)cc3)cn(CC(=O)c3ccc(O)cc3)c2cc1OC [Example 14, 1-(4-hydroxyphenyl)-2-[3-(4-hydroxyphenyl)-5,6-dimethoxy-1H-indol-1-yl]ethanone]",43.3 µM,–
"COc1ccc2c(-c3cccc(O)c3)cn(CC(=O)c3cccc(O)c3)c2c1 [Example 2, 1-(3-hydroxyphenyl)-2-[3-(3-hydroxyphenyl)-6-methoxy-1H-indol-1-yl]ethanone]",30.6 µM,–
"COc1cc(OC)c2c(-c3ccccc3O)cn(CC(=O)c3ccccc3O)c2c1 [Example 7, 1-(2-hydroxyphenyl)-2-[3-(2-hydroxyphenyl)-4,6-dimethoxy-1H-indol-1-yl]ethanone]",32.9 µM,–
"COc1ccc(OC)c2c1c(-c1ccc(O)cc1)cn2CC(=O)c1ccc(O)cc1 [Example 13, 1-(4-hydroxyphenyl)-2-[3-(4-hydroxyphenyl)-4,7-dimethoxy-1H-indol-1-yl]ethanone]",98.4 µM,–
